One series addresses T1, Cathepsin K (Homo sapiens, UniProt P43235).
T1 sequence (P43235 whole entry): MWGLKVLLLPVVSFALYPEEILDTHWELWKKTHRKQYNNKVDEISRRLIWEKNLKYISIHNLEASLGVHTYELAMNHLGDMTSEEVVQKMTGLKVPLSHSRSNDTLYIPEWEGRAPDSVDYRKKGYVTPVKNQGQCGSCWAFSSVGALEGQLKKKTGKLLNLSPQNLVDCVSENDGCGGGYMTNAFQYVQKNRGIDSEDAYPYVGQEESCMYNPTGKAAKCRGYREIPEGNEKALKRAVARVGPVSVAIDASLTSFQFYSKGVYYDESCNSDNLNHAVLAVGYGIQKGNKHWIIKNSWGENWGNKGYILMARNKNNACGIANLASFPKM
The series can be described thus: Inhibition of recombinant human cathepsin K by fluorescence assay.

The nature of series [1]: Half life in Han Wistar rat iv. In kind it is ADME, organism-based. The settings on record: in vivo.
Series [2] can be described thus: Volume of distribution in Han Wistar rat. In kind it is ADME, organism-based. The settings on record: in vivo, read-out: Vss.
Series [3] is described as follows: Solubility in fasted state-simulated intestinal fluid at pH 6.8. The series is classed as physicochemical.
Series [4] can be described thus: Oral bioavailability in Han Wistar rat. The series is classed as ADME, organism-based. The conditions noted are these: in vivo.
A short description of series [5]: Clearance in Han Wistar rat. In kind it is ADME, organism-based. The settings on record: in vivo.
The nature of series [6]: Permeability in MDCK cell line. In kind it is ADME, cell-based, Canis lupus familiaris. The conditions noted are these: dog.

This is an account of results in ChEMBL document CHEMBL1146061, “Novel, potent P2-P3 pyrrolidine derivatives of ketoamide-based cathepsin K inhibitors” (Bioorg Med Chem Lett, 2006).

Converted amounts (≈) assume the structure as drawn.

As usually defined, the IC50 is the concentration that inhibits the measured activity by half. As to `CCCC[C@H](NC(=O)O[C@@H]1C(=O)N(C(=O)c2cc3ccccc3s2)CC1(C)C)C(=O)C(=O)N[C@H](C)c1ccccc1`, the IC50 on Cathepsin K came to 2.8 nM.
In general, half-life refers to the time needed for the level to fall by half in the phase considered. Read a low half-life as fast loss. As a reminder, the solubility is the concentration that dissolves in the medium under given conditions. What is called bioavailability is the share of a dose that reaches the circulation, judged against a reference dose that is usually intravenous. For orientation: clearance means the rate of elimination divided by the concentration. A lower clearance goes with inefficient removal. Broadly, the Papp is a coefficient for how fast a substance crosses the barrier. The low end stands for poor permeation, the high end for ready permeation. On to `CCCC[C@H](NC(=O)O[C@@H]1C(=O)N(C(=O)c2cccnc2)CC1(C)C)C(=O)C(=O)N[C@H](C)c1ccccc1`, for which, at Cathepsin K, the half-inhibitory concentration (IC50) was determined as 14 nM. Further, the half-life in series [1] came out at 1.57 h. The Vd in series [2] was 0.55 L/kg. In series [3], this molecule displayed a solubility of 85 µg/mL (≈ 163 µM). For the same molecule, in series [4], the bioavailability came out at 45%. This molecule also came in with a clearance in series [5] of 34 mL/min/kg. Moreover, the Papp in series [6] came out at 21 ×10⁻⁶ cm/s.
As to `CCCC[C@H](NC(=O)O[C@@H]1C(=O)N(S(=O)(=O)Cc2ccccc2)CC1(C)C)C(=O)C(=O)N[C@H](C)c1ccccc1`, at Cathepsin K, the IC50 is 17 nM.
On to `CCCC[C@H](NC(=O)O[C@@H]1C(=O)N(Cc2ccccc2)CC1(C)C)C(=O)C(=O)N[C@H](C)c1ccccc1`, for which the 50% inhibitory concentration (IC50) on Cathepsin K was 21 nM.
Consider `CCCC[C@H](NC(=O)O[C@@H]1C(=O)N(C(=O)Cc2ccccc2)CC1(C)C)C(=O)C(=O)N[C@H](C)c1ccccc1`, for which, at Cathepsin K, the IC50 was 3 nM. The molecule also registered a half-life in series [1] of 1.05 h. In addition, the Vd in series [2] came out at 1.5 L/kg. This molecule also registered a solubility in series [3] of 68 µg/mL (≈ 127 µM). This molecule also returned a bioavailability in series [4] of 29%. In series [5], the clearance amounted to 26 mL/min/kg. The same molecule returned a Papp in series [6] of 41 ×10⁻⁶ cm/s.
As for `CCCC[C@H](NC(=O)O[C@@H]1C(=O)N(C(=O)Oc2ccc3ccccc3c2)CC1(C)C)C(=O)C(=O)N[C@H](C)c1ccccc1`, the half-maximal inhibitory concentration (IC50) at Cathepsin K turned out to be 58 nM.
On the same count and under the same terms, in the case of `CCCC[C@H](NC(=O)O[C@@H]1C(=O)N(C(=O)Oc2ccc(-c3ccccc3)cc2)CC1(C)C)C(=O)C(=O)N[C@H](C)c1ccccc1` it was 5 nM.
On to `CCCC[C@H](NC(=O)O[C@@H]1C(=O)N(C(=O)Nc2ccc(C(F)(F)F)cc2)CC1(C)C)C(=O)C(=O)Nc1cc[nH]n1`, for which, on Cathepsin K, the IC50 is 0.42 nM. Moreover, in series [1], the half-life amounted to 1.25 h. In addition, the Vd in series [2] was 2.6 L/kg. The same molecule gave a solubility in series [3] of 140 µg/mL (≈ 247 µM). The same molecule registered a bioavailability in series [4] of 26%. The molecule further returned a clearance in series [5] of 77 mL/min/kg. Moreover, in series [6], the Papp was 1.8 ×10⁻⁶ cm/s.
`CCCC[C@H](NC(=O)O[C@@H]1C(=O)N(C(=O)c2ccc3ccccc3c2)CC1(C)C)C(=O)C(=O)N[C@H](C)c1ccccc1`: the IC50 at Cathepsin K is 1.6 nM.
Consider `CCCC[C@H](NC(=O)O[C@@H]1C(=O)N(C(=O)c2ccccc2)CC1(C)C)C(=O)C(=O)N[C@H](C)c1ccccc1`, for which, on Cathepsin K, the IC50 turned out to be 65 nM.
`CCCC[C@H](NC(=O)O[C@@H]1C(=O)N(C(=O)N2CCOCC2)CC1(C)C)C(=O)C(=O)N[C@H](C)c1ccccc1`: the IC50 on Cathepsin K is 16 nM.
In the case of `CCCC[C@H](NC(=O)O[C@@H]1C(=O)N(C(=O)Nc2ccccc2)CC1(C)C)C(=O)C(=O)N[C@H](C)c1ccccc1`, at Cathepsin K, the IC50 stood at 4.3 nM.
Consider `CCCC[C@H](NC(=O)O[C@@H]1C(=O)N(C(=O)c2nc3ccccc3s2)CC1(C)C)C(=O)C(=O)Nc1ccn[nH]1`, for which, on Cathepsin K, the half-maximal inhibitory concentration (IC50) turned out to be 0.81 nM. This molecule had a half-life in series [1] of 3 h. The Vd in series [2] was found to be 2.2 L/kg. This molecule showed a solubility in series [3] of 160 µg/mL (≈ 296 µM). In series [4], this molecule gave a bioavailability of 14%. Further, in series [5], the clearance worked out at 65 mL/min/kg. The same molecule came in with a Papp in series [6] of 25 ×10⁻⁶ cm/s.
As to `CCCC[C@H](NC(=O)O[C@@H]1C(=O)N(C(=O)Oc2ccccc2)CC1(C)C)C(=O)C(=O)N[C@H](C)c1ccccc1`, at Cathepsin K, the IC50 is 29 nM.
`CCCC[C@H](NC(=O)O[C@@H]1C(=O)N(C(=O)Nc2ccc(C(F)(F)F)cc2)CC1(C)C)C(=O)C(=O)N[C@H](C)c1ccccc1`: the IC50 at Cathepsin K was 2.1 nM.
`CCCC[C@H](NC(=O)O[C@@H]1C(=O)N(C(=O)NCCc2ccccc2)CC1(C)C)C(=O)C(=O)N[C@H](C)c1ccccc1`: on Cathepsin K, the IC50 stood at 6.6 nM.
For `CCCC[C@H](NC(=O)O[C@@H]1C(=O)N(C(=O)c2ccc(-c3ccccc3)cc2)CC1(C)C)C(=O)C(=O)N[C@H](C)c1ccccc1`, the 50% inhibitory concentration (IC50) on Cathepsin K turned out to be 6.9 nM.
For `CCCC[C@H](NC(=O)O[C@@H]1C(=O)N(C(=O)Nc2c(C)noc2C)CC1(C)C)C(=O)C(=O)N[C@H](C)c1ccccc1`, the IC50 on Cathepsin K was found to be 15 nM. Besides, in series [1], the half-life amounted to 0.583 h. Also, in series [2], the Vd is 1.4 L/kg. This molecule also registered a solubility in series [3] of 320 µg/mL (≈ 576 µM). This molecule also had a bioavailability in series [4] of 8.8%. Also, the clearance in series [5] is 83 mL/min/kg. Further, the Papp in series [6] turned out to be 1.2 ×10⁻⁶ cm/s.
As to `CCCC[C@H](NC(=O)O[C@@H]1C(=O)N(C(=O)CCCc2ccccc2)CC1(C)C)C(=O)C(=O)N[C@H](C)c1ccccc1`, on Cathepsin K, the IC50 was determined as 27 nM.
For `CCCC[C@H](NC(=O)O[C@@H]1C(=O)N(C(=O)NCc2ccccc2)CC1(C)C)C(=O)C(=O)N[C@H](C)c1ccccc1`, the IC50 on Cathepsin K worked out at 3.8 nM. Further, the half-life in series [1] was found to be 1.02 h. Further, in series [2], the Vd was determined as 1.4 L/kg. This molecule also came in with a solubility in series [3] of 53 µg/mL (≈ 96.2 µM). Also, the bioavailability in series [4] was 21%. The molecule also gave a clearance in series [5] of 32 mL/min/kg. The same molecule gave a Papp in series [6] of 21 ×10⁻⁶ cm/s.
As for `CCCC[C@H](NC(=O)O[C@@H]1C(=O)N(C(=O)c2nnc(C(F)(F)F)s2)CC1(C)C)C(=O)C(=O)Nc1cc[nH]n1`, the IC50 on Cathepsin K came to 1 nM. This molecule also showed a half-life in series [1] of 1.35 h. Further, the Vd in series [2] was 3.3 L/kg. This molecule also came in with a bioavailability in series [4] of 13%. In series [5], this molecule gave a clearance of 79 mL/min/kg. In series [6], this molecule yielded a Papp of 12 ×10⁻⁶ cm/s.
With `CCCC[C@H](NC(=O)O[C@@H]1C(=O)N(C(=O)OCc2ccccc2)CC1(C)C)C(=O)C(=O)N[C@H](C)c1ccccc1`, the IC50 at Cathepsin K was 24 nM.
In the case of `CCCC[C@H](NC(=O)O[C@@H]1C(=O)N(C(=O)c2ccno2)CC1(C)C)C(=O)C(=O)N[C@H](C)c1ccccc1`, the IC50 on Cathepsin K was determined as 8.9 nM. This molecule came in with a half-life in series [1] of 0.6 h. Further, the Vd in series [2] was 0.5 L/kg. Moreover, the concentration in solution in series [3] (solubility) was 68 µg/mL (≈ 133 µM). In series [4], this molecule yielded a bioavailability of 8.6%. In addition, in series [5], the clearance was 18 mL/min/kg. In addition, the Papp in series [6] was determined as 48 ×10⁻⁶ cm/s.
Turning to `CCCC[C@H](NC(=O)O[C@@H]1C(=O)N(C(=O)OCCc2ccccc2)CC1(C)C)C(=O)C(=O)N[C@H](C)c1ccccc1`, the IC50 at Cathepsin K was determined as 32 nM.
In the case of `CCCC[C@H](NC(=O)O[C@@H]1C(=O)N(C(=O)c2ccc3[nH]ccc3c2)CC1(C)C)C(=O)C(=O)N[C@H](C)c1ccccc1`, the IC50 at Cathepsin K was found to be 1.7 nM.
Regarding `CCCC[C@H](NC(=O)O[C@@H]1C(=O)N(C(=O)OCc2ccc(-c3ccccc3)cc2)CC1(C)C)C(=O)C(=O)N[C@H](C)c1ccccc1`, on Cathepsin K, the IC50 was determined as 2.1 nM.
`CCCC[C@H](NC(=O)O[C@@H]1C(=O)N(S(=O)(=O)c2ccccc2)CC1(C)C)C(=O)C(=O)N[C@H](C)c1ccccc1`: on Cathepsin K, the IC50 came out at 8.3 nM. Also, the half-life in series [1] is 2.5 h. Also, the Vd in series [2] amounted to 2.1 L/kg. The molecule further yielded a bioavailability in series [4] of 25%. Also, in series [5], the clearance was 27 mL/min/kg.
